Test results: US20260041620A1, “NOVEL AMINO ACID BASED SALTS, COMPOSITIONS AND METHODS FOR TREATING SKIN AND IMPROVING SKIN REJUVENATION AND LONGEVITY” (Sytheon Ltd, priority 2023, published 2026)
Read-outs that look alike come from different tables or passages of the source.

Columns and labels:
HDAC 11 = target: T1, HDAC 11 (Homo sapiens, UniProt Q96DB2); experiment: HDAC 11 fluorogenic assay kit; format: biochemical
T1 construct: purchased BPS Biosciences 50687
T1 sequence (Q96DB2 1-347): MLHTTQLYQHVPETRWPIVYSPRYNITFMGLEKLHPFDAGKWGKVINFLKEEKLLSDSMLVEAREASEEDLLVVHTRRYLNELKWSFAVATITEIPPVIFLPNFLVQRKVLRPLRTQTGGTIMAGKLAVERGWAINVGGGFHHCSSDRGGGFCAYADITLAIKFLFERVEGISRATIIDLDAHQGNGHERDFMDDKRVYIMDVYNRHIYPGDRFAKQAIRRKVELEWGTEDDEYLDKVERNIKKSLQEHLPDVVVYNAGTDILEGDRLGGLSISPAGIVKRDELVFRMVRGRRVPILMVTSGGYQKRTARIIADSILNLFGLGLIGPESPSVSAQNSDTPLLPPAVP
Description: (§1) Test materials were stored at room temperature and stock solutions were prepared at 20 mg/ml in DMSO. Further dilutions were made in sterile distilled water immediately before being added to the reaction mixture containing a substrate, and the reaction was triggered by the addition of purified HDAC enzymes, Double distilled water was the negative control and trichostatin (1.5 ug/ml) was used as a positive control for validation of each study. The test procedure was as directed in the assay kits. The products of the reactions were measured by fluorometry at ex/em 350/450 nm using multi-well plate fluorometer Cytofluor 4000 (Applied Biosystem, Foster City, CA) or using SpectraMax i3× Multi-Mode Detection Platform from Molecular Devices (Sunnyvale, CA).
(§2) Statistical significance was assessed with a two-tail Student test. Deviations of ≤20% as compared to water control with p values below 0.05 were considered statistically significant.

FAAH = target: T2, FAAH (Homo sapiens, UniProt O00519); experiment: FAAH fluorescence-based inhibitory assay; format: biochemical
T2 sequence (O00519 1-579): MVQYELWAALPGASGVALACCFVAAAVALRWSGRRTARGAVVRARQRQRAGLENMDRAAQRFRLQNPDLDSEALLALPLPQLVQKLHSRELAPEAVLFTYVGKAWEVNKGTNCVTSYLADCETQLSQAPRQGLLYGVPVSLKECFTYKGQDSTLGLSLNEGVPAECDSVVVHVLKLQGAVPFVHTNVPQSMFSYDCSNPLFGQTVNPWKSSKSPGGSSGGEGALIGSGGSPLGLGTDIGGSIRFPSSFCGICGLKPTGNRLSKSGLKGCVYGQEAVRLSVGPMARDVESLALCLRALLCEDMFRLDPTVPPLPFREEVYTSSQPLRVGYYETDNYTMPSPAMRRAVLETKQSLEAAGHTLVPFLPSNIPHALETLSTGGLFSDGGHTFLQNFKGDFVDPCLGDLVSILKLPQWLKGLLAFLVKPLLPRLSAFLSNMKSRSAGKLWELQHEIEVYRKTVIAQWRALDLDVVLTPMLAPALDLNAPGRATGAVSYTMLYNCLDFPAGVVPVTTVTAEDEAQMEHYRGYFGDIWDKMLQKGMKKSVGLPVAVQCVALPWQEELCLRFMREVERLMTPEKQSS

HDAC2 = HDAC2 (Homo sapiens, UniProt Q92769)
Description: as §1, §2

HDAC 3 = HDAC 3 (Homo sapiens, UniProt O15379)
Description: as §1, §2

HDAC 5 = HDAC 5 (Homo sapiens, UniProt Q9UQL6)
Description: as §1, §2

HDAC7 = target: T3, HDAC7 (Homo sapiens, UniProt Q8WUI4)
T3 sequence (Q8WUI4 1-952): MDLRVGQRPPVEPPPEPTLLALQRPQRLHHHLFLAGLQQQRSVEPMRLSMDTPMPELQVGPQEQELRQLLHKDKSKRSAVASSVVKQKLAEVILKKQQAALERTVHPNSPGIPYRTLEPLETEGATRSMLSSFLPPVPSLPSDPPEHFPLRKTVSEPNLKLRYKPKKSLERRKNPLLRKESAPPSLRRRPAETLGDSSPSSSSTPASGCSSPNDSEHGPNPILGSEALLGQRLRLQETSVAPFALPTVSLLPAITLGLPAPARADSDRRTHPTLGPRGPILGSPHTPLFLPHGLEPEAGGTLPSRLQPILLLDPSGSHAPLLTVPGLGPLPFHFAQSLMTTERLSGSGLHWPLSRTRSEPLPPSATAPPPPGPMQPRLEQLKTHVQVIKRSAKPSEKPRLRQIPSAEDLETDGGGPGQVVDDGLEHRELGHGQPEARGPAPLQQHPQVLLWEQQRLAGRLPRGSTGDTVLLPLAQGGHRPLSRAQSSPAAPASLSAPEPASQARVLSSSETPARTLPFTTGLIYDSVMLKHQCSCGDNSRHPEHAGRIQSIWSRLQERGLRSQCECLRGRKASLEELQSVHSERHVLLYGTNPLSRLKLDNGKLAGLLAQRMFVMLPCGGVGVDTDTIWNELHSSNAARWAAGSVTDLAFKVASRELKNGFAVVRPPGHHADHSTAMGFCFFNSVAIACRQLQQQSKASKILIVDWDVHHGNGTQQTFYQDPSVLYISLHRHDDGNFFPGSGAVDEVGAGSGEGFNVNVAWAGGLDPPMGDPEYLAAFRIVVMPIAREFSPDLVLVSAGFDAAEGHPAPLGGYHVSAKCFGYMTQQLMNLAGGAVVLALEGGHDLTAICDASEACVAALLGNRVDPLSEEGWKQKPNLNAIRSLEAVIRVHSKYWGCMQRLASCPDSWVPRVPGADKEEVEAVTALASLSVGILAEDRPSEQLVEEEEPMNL
Description: as §1, §2

HDAC 8 = target: T4, HDAC 8 (Homo sapiens, UniProt Q9BY41)
T4 sequence (Q9BY41 1-377): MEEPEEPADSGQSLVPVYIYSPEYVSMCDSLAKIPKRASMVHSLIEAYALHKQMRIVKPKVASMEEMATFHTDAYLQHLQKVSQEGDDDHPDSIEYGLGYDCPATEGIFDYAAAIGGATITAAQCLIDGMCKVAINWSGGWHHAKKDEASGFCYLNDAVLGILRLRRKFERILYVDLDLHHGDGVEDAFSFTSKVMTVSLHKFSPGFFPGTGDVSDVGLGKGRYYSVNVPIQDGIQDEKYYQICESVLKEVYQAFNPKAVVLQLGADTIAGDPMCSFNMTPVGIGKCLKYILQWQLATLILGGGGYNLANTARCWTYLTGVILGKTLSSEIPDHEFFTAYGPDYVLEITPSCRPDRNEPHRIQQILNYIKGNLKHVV
Description: as §1, §2

HDAC1 = HDAC1 (Homo sapiens, UniProt Q13547); experiment: HDAC 1 fluorogenic assay kit
Chain of HDAC1 (Q13547 whole entry): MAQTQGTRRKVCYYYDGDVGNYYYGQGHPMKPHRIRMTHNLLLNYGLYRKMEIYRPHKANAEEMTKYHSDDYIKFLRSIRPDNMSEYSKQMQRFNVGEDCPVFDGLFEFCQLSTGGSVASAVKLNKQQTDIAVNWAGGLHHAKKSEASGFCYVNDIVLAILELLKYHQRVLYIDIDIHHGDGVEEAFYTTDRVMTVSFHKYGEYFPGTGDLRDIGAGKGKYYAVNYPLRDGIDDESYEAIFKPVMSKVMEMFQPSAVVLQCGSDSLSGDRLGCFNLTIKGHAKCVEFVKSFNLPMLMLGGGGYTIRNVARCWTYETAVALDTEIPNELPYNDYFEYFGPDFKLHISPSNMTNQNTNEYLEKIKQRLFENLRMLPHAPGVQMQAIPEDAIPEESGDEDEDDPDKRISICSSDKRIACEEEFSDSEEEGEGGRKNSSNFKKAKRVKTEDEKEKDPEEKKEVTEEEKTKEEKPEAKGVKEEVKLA
Description: as §1, §2

Chain of HDAC 3 (O15379 whole entry): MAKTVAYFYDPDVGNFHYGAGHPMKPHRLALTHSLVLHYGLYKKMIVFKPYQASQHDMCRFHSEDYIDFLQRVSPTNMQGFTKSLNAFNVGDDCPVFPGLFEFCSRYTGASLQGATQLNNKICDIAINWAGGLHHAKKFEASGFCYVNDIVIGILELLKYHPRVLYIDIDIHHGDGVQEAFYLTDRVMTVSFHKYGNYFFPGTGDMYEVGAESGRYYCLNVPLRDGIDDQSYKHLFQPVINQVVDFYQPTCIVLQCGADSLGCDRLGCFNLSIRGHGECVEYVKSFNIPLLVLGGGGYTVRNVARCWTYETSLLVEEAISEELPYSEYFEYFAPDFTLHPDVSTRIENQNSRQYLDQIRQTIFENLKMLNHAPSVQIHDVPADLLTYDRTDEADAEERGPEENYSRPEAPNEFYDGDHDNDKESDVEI
Chain of HDAC 3 (Q9Y618 395-489 partner limits assumed): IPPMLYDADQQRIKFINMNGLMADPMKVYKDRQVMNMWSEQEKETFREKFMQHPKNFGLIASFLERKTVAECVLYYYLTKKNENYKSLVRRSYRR
Chain of HDAC 5 (Q9UQL6 whole entry): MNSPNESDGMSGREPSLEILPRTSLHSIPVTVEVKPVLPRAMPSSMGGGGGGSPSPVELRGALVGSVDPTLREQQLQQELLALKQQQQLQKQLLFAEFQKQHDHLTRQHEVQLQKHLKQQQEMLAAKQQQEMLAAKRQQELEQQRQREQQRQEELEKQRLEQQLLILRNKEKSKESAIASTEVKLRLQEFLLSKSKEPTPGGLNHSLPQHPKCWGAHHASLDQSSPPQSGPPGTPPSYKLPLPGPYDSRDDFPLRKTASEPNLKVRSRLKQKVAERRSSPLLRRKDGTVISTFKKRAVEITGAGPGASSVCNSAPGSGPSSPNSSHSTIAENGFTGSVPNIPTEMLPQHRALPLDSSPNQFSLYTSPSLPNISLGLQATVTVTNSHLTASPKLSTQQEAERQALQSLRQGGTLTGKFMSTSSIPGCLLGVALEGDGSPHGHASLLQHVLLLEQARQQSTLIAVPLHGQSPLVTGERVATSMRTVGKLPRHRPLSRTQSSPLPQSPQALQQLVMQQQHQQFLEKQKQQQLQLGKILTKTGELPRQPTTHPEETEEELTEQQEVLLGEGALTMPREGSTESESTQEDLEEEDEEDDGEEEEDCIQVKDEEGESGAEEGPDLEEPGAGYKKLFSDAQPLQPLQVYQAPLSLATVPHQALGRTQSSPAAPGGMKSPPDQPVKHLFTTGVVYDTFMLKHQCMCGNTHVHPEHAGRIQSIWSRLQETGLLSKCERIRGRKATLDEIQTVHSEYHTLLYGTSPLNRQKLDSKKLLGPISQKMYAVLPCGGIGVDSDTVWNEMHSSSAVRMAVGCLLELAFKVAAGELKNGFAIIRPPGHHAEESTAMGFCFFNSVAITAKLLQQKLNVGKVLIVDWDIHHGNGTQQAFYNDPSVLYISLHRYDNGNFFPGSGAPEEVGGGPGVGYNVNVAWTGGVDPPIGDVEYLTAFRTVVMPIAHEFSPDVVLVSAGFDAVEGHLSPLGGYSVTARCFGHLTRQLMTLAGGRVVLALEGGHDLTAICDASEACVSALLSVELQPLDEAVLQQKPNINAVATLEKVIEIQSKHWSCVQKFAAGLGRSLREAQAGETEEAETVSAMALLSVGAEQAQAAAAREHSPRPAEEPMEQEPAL
Chain of HDAC2 (Q92769 whole entry): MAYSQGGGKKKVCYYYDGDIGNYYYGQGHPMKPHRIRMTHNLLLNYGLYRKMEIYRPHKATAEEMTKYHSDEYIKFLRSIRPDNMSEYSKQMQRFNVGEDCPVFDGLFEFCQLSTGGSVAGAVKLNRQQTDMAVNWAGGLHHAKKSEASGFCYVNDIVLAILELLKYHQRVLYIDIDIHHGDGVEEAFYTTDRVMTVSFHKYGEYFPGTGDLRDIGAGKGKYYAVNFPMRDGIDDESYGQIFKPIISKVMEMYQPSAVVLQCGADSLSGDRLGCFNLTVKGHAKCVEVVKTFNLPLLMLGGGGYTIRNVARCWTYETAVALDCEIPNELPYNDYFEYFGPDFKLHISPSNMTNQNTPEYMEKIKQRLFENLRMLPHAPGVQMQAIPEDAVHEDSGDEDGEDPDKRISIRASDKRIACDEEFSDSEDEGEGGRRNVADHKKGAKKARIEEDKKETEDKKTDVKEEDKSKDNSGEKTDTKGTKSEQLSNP

Row | Structure (SMILES) | HDAC 11 activity, % of water-treated controls (HDAC 11; 25 ug/ml) [%] | HDAC 11 activity, % of water-treated controls (HDAC 11; 50 ug/ml) [%] | HDAC 11 activity, % of water-treated controls (HDAC 11; 100 ug/ml) [%] | HDAC 11 activity, % of water-treated controls (HDAC 11; 200 ug/ml) [%] | FAAH IC50 (FAAH) [µg/mL] | HDAC 2 activity, % of water-treated controls (HDAC2; 25 ug/ml) [%] | HDAC 2 activity, % of water-treated controls (HDAC2; 50 ug/ml) [%] | HDAC 2 activity, % of water-treated controls (HDAC2; 100 ug/ml) [%] | HDAC 2 activity, % of water-treated controls (HDAC2; 200 ug/ml) [%] | HDAC 3 activity, % of water-treated controls (HDAC 3; 50 ug/ml) [%] | HDAC 3 activity, % of water-treated controls (HDAC 3; 200 ug/ml) [%] | HDAC 5 activity, % of water-treated controls (HDAC 5; 50 ug/ml) [%] | HDAC 5 activity, % of water-treated controls (HDAC 5; 100 ug/ml) [%] | HDAC 5 activity, % of water-treated controls (HDAC 5; 200 ug/ml) [%] | HDAC 7 activity, % of water-treated controls (HDAC7; 50 ug/ml) [%] | HDAC 7 activity, % of water-treated controls (HDAC7; 100 ug/ml) [%] | HDAC 7 activity, % of water-treated controls (HDAC7; 200 ug/ml) [%] | HDAC 8 activity, % of water-treated controls (HDAC 8; 50 ug/ml) [%] | HDAC 8 activity, % of water-treated controls (HDAC 8; 100 ug/ml) [%] | HDAC 8 activity, % of water-treated controls (HDAC 8; 200 ug/ml) [%] | also measured
1 | CCCC(=O)NCCCC[C@H](NC(=O)CCC)C(=O)[O-].CCCC(=O)NCCCC[C@H](NC(=O)CCC)C(=O)[O-].[Zn+2] [Zn di-(di-n-butyryl lysinate), Zinc di-(di-n-butyryl lysinate)] | 63 | 17 | 22 | 43 | 368.7 | 20 | 20 | 17 | 15 | 5 | 4 | 65 | 33 | 17 | 15 | 9 | 9 | 15 | 13 | 17 | HDAC 11 activity, % of water-treated controls (HDAC 11; 5 ug/ml): 102%; HDAC 3 activity, % of water-treated controls (HDAC 3; 25 ug/ml): 14%; HDAC 5 activity, % of water-treated controls (HDAC 5; 25 ug/ml): 89%; HDAC 7 activity, % of water-treated controls (HDAC7; 5 ug/ml): 56%; HDAC 7 activity, % of water-treated controls (HDAC7; 25 ug/ml): 28%; HDAC 8 activity, % of water-treated controls (HDAC 8; 5 ug/ml): 15%; HDAC 8 activity, % of water-treated controls (HDAC 8; 25 ug/ml): 15%; HDAC 1 activity, % of water-treated controls (HDAC1; 5 ug/ml): 30%; HDAC 1 activity, % of water-treated controls (HDAC1; 25 ug/ml): 32%; HDAC 1 activity, % of water-treated controls (HDAC1; 50 ug/ml): 38%; HDAC 1 activity, % of water-treated controls (HDAC1; 100 ug/ml): 49%; HDAC 1 activity, % of water-treated controls (HDAC1; 200 ug/ml): 45%
2 | CCCC(=O)N[C@@H](CC(C)C)C(=O)[O-].CCCC(=O)N[C@@H](CC(C)C)C(=O)[O-].[Zn+2] [Zn di-(n-butyryl leucinate), Zinc di-(n-butyryl leucinate)] | 100 | 93 | 71 | 39 | 41.3 | 39 | 37 | 31 | 28 |  |  | 91 | 50 | 26 | 11 | 9 | 9 | 16 | 16 | 14 | HDAC 11 activity, % of water-treated controls (HDAC 11; 5 ug/ml): 102%; HDAC 5 activity, % of water-treated controls (HDAC 5; 25 ug/ml): 128%; HDAC 7 activity, % of water-treated controls (HDAC7; 5 ug/ml): 41%; HDAC 7 activity, % of water-treated controls (HDAC7; 25 ug/ml): 18%; HDAC 8 activity, % of water-treated controls (HDAC 8; 5 ug/ml): 7%; HDAC 8 activity, % of water-treated controls (HDAC 8; 25 ug/ml): 16%
3 | CCCC(=O)NCCCCC(NC(=O)CCC)C(=O)[O-].CCCC(=O)NCCCCC(NC(=O)CCC)C(=O)[O-].[Ca+2] (stereo not shown) [Ca di-(di-n-butyryl lysinate), calcium di-(di-n-butyryl lysinate)] | 106 | 100 | 101 | 97 | 213.6 | 96 | 90 | 97 | 94 | 120 | 119 | 123 | 117 | 88 | 99 | 99 | 97 | 174 | 155 | 111 | HDAC 3 activity, % of water-treated controls (HDAC 3; 25 ug/ml): 116%; HDAC 3 activity, % of water-treated controls (HDAC 3; 100 ug/ml): 121%; HDAC 5 activity, % of water-treated controls (HDAC 5; 5 ug/ml): 144%; HDAC 5 activity, % of water-treated controls (HDAC 5; 25 ug/ml): 128%; HDAC 7 activity, % of water-treated controls (HDAC7; 25 ug/ml): 101%; HDAC 8 activity, % of water-treated controls (HDAC 8; 5 ug/ml): 91%; HDAC 8 activity, % of water-treated controls (HDAC 8; 25 ug/ml): 148%; HDAC 1 activity, % of water-treated controls (HDAC1; 25 ug/ml): 80%; HDAC 1 activity, % of water-treated controls (HDAC1; 50 ug/ml): 89%; HDAC 1 activity, % of water-treated controls (HDAC1; 100 ug/ml): 135%
4 | CCCC(=O)[O-].[Na+] [Sodium butyrate, reference compound] |  | 89 | 87 | 84 |  |  | 89 | 93 | 94 | 98 | 60 | 38 | 26 | 15 | 96 | 94 | 87 | 25 | 20 | 20 | HDAC 11 activity, % of water-treated controls (HDAC 11; 400 ug/ml): 91%; IC50 (FAAH): 7.31 mM; HDAC 2 activity, % of water-treated controls (HDAC2; 400 ug/ml): 95%; HDAC 3 activity, % of water-treated controls (HDAC 3; 100 ug/ml): 82%; HDAC 3 activity, % of water-treated controls (HDAC 3; 400 ug/ml): 49%; HDAC 5 activity, % of water-treated controls (HDAC 5; 400 ug/ml): 11%; HDAC 7 activity, % of water-treated controls (HDAC7; 400 ug/ml): 91%; HDAC 8 activity, % of water-treated controls (HDAC 8; 400 ug/ml): 14%; HDAC 1 activity, % of water-treated controls (HDAC1; 50 ug/ml): 109%; HDAC 1 activity, % of water-treated controls (HDAC1; 100 ug/ml): 46%; HDAC 1 activity, % of water-treated controls (HDAC1; 200 ug/ml): 39%; HDAC 1 activity, % of water-treated controls (HDAC1; 400 ug/ml): 38%
